Reference: PMC12274840 (The Journal of Biological Chemistry, 2025)
In brackets after ≈: the same amount, converted by molar mass. Where two headings read alike, the source gives them in different places.

Columns and labels:
[1] = test system: E. coli KA797 cells carrying pUK21 with TEM-1 WT (Sec); assay: microbe, parasite or virus in culture; assay type: cell-based; conditions: in combination with 100 μg/ml carbenicillin
[2] = test system: E. coli KA797 cells carrying pUK21 with NmcA (pelB/Sec); assay: microbe, parasite or virus in culture; assay type: cell-based
[3] = test system: E. coli KA797 cells carrying pUK21 with CTX-M-14 WT (Tat); assay: microbe, parasite or virus in culture; assay type: cell-based
[4] = test system: E. coli KA797 cells carrying BlaC position 105 library; assay type: cell-based, Escherichia coli; conditions: for Fi AVG (average fitness) / Fi CEF AVG: average of replicates; for WT abs Fi 2 / Fi CEF 2: replicate 2
[5] = test system: E. coli KA797 cells carrying pUK21 with BlaC WT (Tat); assay: microbe, parasite or virus in culture; assay type: cell-based
[6] = test system: E. coli KA797 cells carrying CTX-M-14 position 105 library; assay type: cell-based
[7] = test system: E. coli KA797 cells carrying NmcA position 105 library; assay type: cell-based
[8] = test system: E. coli KA797 cells carrying TEM-1 position 105 library; assay type: cell-based; conditions: for Fi CEF AVG: average of replicates
[9] = test system: E. coli KA797 cells carrying pUK21 vector without the β-lactamase gene; assay: microbe, parasite or virus in culture; assay type: cell-based; conditions: Escherichia coli
[10] = in combination with 100 μg/ml carbenicillin
[11] = Escherichia coli, antibiotic alone

## CC1(C)[C@H](C(=O)O)N2C(=O)C[C@H]2S1(=O)=O [sulbactam]
[1]
  MIC of inhibitor: 32 µg/mL
[2]; in combination with 25 μg/ml carbenicillin
  MIC of inhibitor: 32 µg/mL
[3]; [10]
  MIC of inhibitor: 32 µg/mL
[4]; AA 105 Ala (BlaC I105A), relative to WT Ile
  Fi AVG (average fitness): -0.022
[4]; AA 105 Arg (BlaC I105R), relative to WT Ile
  Fi AVG (average fitness): -0.000687
[4]; AA 105 Asn (BlaC I105N), relative to WT Ile
  Fi AVG (average fitness): 0.167
[4]; AA 105 Asp (BlaC I105D), relative to WT Ile
  Fi AVG (average fitness): -0.060
[4]; AA 105 Cys (BlaC I105C), relative to WT Ile
  Fi AVG (average fitness): -0.004
[4]; AA 105 Gln (BlaC I105Q), relative to WT Ile
  Fi AVG (average fitness): 0.070
[4]; AA 105 Glu (BlaC I105E), relative to WT Ile
  Fi AVG (average fitness): 0.009
[4]; AA 105 Gly (BlaC I105G), relative to WT Ile
  Fi AVG (average fitness): 0.023
[4]; AA 105 His (BlaC I105H), relative to WT Ile
  Fi AVG (average fitness): 0.133
[4]; AA 105 Ile (BlaC WT, reference)
  Fi AVG (average fitness): 0.000
[4]; AA 105 Leu (BlaC I105L), relative to WT Ile
  Fi AVG (average fitness): 0.101
[4]; AA 105 Lys (BlaC I105K), relative to WT Ile
  Fi AVG (average fitness): 0.043
[4]; AA 105 Met (BlaC I105M), relative to WT Ile
  Fi AVG (average fitness): -0.015
[4]; AA 105 Phe (BlaC I105F), relative to WT Ile
  Fi AVG (average fitness): 0.205
[4]; AA 105 Pro (BlaC I105P), relative to WT Ile
  Fi AVG (average fitness): 0.056
[4]; AA 105 Ser (BlaC I105S), relative to WT Ile
  Fi AVG (average fitness): 0.083
[4]; AA 105 Thr (BlaC I105T), relative to WT Ile
  Fi AVG (average fitness): 0.012
[4]; AA 105 Trp (BlaC I105W), relative to WT Ile
  Fi AVG (average fitness): 0.218
[4]; AA 105 Tyr (BlaC I105Y), relative to WT Ile
  Fi AVG (average fitness): 0.087
[4]; AA 105 Val (BlaC I105V), relative to WT Ile
  Fi AVG (average fitness): 0.121
[4]; absolute fitness of BlaC WT (Ile 105), replicate 1
  WT abs Fi 1: -0.251
[4]; absolute fitness of BlaC WT (Ile 105)
  WT abs Fi 2: 0.228
[4]; absolute fitness of BlaC WT (Ile 105), replicate 3
  WT abs Fi 3: -0.183
[5]; [10]
  MIC of inhibitor: 4 µg/mL

## CO/N=C(\C(=O)N[C@@H]1C(=O)N2C(C(=O)O)=C(CSc3nc(=O)c(=O)[nH]n3C)CS[C@H]12)c1csc(N)n1 [ceftriaxone]
[2]; [11]
  MIC: 0.2 µg/mL (≈ 0.361 µM)
[3]; [11]
  MIC: 1600 µg/mL (≈ 2890 µM)
[6]; CTX-M-14 AA 105 Ala
  Significance of average fitness: -
[6]; CTX-M-14 AA 105 Arg
  Significance of average fitness: -
[6]; CTX-M-14 AA 105 Asn
  Significance of average fitness: -
[6]; CTX-M-14 AA 105 Asp
  Significance of average fitness: -
[6]; CTX-M-14 AA 105 Cys
  Significance of average fitness: -
[6]; CTX-M-14 AA 105 Gln
  Significance of average fitness: -
[6]; CTX-M-14 AA 105 Glu
  Significance of average fitness: -
[6]; CTX-M-14 AA 105 Gly
  Significance of average fitness: -
[6]; CTX-M-14 AA 105 His
  Significance of average fitness: -
[6]; CTX-M-14 AA 105 Ile
  Significance of average fitness: -
[6]; CTX-M-14 AA 105 Leu
  Significance of average fitness: -
[6]; CTX-M-14 AA 105 Lys
  Significance of average fitness: -
[6]; CTX-M-14 AA 105 Met
  Significance of average fitness: -
[6]; CTX-M-14 AA 105 Phe
  Significance of average fitness: -
[6]; CTX-M-14 AA 105 Pro
  Significance of average fitness: -
[6]; CTX-M-14 AA 105 Ser
  Significance of average fitness: -
[6]; CTX-M-14 AA 105 Thr
  Significance of average fitness: -
[6]; CTX-M-14 AA 105 Trp
  Significance of average fitness: +
[6]; CTX-M-14 AA 105 Val
  Significance of average fitness: -
[6]; CTX-M-14 WT (Tyr 105)
  WT abs Fi 1 (absolute fitness of wild type, Replicate 1): 0.241
  WT abs Fi 2 (absolute fitness of wild type, Replicate 2): 0.256
[7]; NmcA AA 105 Asp
  Fi AVG (average fitness of replicates): 0.078
[7]; NmcA AA 105 Cys
  Fi AVG (average fitness of replicates): 0.046
[7]; NmcA AA 105 Glu
  Fi AVG (average fitness of replicates): 0.057
[7]; NmcA AA 105 Lys
  Fi AVG (average fitness of replicates): 0.077
[7]; NmcA AA 105 Phe
  Fi AVG (average fitness of replicates): 0.046
[7]; NmcA AA 105 Pro
  Fi AVG (average fitness of replicates): 0.055
[7]; NmcA AA 105 Trp
  Fi AVG (average fitness of replicates): 0.226
  Significance of average fitness: +
[7]; NmcA WT, replicate 1
  WT abs Fi 1 (absolute fitness): 0.029
[7]; NmcA WT, replicate 2
  WT abs Fi 2 (absolute fitness): -0.00378
[7]; NmcA WT, replicate 3
  WT abs Fi 3 (absolute fitness): -0.101
[4]; AA 105 Arg, ceftriaxone
  Fi CEF AVG: 0.035
  Fi CEF 2: 0.029
[4]; AA 105 Arg, ceftriaxone, replicate 1
  Fi CEF 1: 0.040
[4]; AA 105 Cys, ceftriaxone
  Fi CEF AVG: 0.035
  Fi CEF 2: 0.049
[4]; AA 105 Cys, ceftriaxone, replicate 1
  Fi CEF 1: 0.020
[4]; AA 105 Gly, ceftriaxone
  Fi CEF 2: -0.00224
[4]; AA 105 His, ceftriaxone
  Fi CEF AVG: 0.032
  Fi CEF 2: 0.057
[4]; AA 105 His, ceftriaxone, replicate 1
  Fi CEF 1: 0.007
[4]; AA 105 Ile (WT), ceftriaxone
  Fi CEF AVG: 0.000
  Fi CEF 2: 0.000
[4]; AA 105 Ile (WT), ceftriaxone, replicate 1
  Fi CEF 1: 0.000
[4]; AA 105 Leu, ceftriaxone
  Fi CEF AVG: 0.017
  Fi CEF 2: 0.011
[4]; AA 105 Leu, ceftriaxone, replicate 1
  Fi CEF 1: 0.023
[4]; AA 105 Lys, ceftriaxone
  Fi CEF AVG: -0.009
  Fi CEF 2: -0.009
[4]; AA 105 Met, ceftriaxone
  Fi CEF AVG: 0.036
  Fi CEF 2: 0.008
[4]; AA 105 Met, ceftriaxone, replicate 1
  Fi CEF 1: 0.064
[4]; AA 105 Phe, ceftriaxone
  Fi CEF AVG: 0.008
  Fi CEF 2: 0.017
[4]; AA 105 Phe, ceftriaxone, replicate 1
  Fi CEF 1: -0.000834
[4]; AA 105 Ser, ceftriaxone
  Fi CEF AVG: -0.011
[4]; AA 105 Ser, ceftriaxone, replicate 1
  Fi CEF 1: -0.00266
[4]; AA 105 Trp, ceftriaxone
  Fi CEF AVG: 0.038
  Fi CEF 2: 0.034
[4]; AA 105 Trp, ceftriaxone, replicate 1
  Fi CEF 1: 0.042
[4]; AA 105 Val, ceftriaxone, replicate 1
  Fi CEF 1: 0.004
[4]; WT (Ile 105) absolute fitness, ceftriaxone
  WT abs Fi 2: -0.008
[8]; AA 105 Ala, replicate 2
  Fi CEF 2: -0.112
[8]; AA 105 Ala, replicate 3
  Fi CEF 3: 0.013
[8]; AA 105 Asn, replicate 2
  Fi CEF 2: -0.107
[8]; AA 105 Asn, replicate 3
  Fi CEF 3: -0.034
[8]; AA 105 Asp, replicate 1
  Fi CEF 1: 0.596
[8]; AA 105 Cys
  Fi CEF AVG: 0.087
[8]; AA 105 Cys, replicate 1
  Fi CEF 1: 0.906
[8]; AA 105 Gln
  Fi CEF AVG: 0.078
[8]; AA 105 Gln, replicate 1
  Fi CEF 1: 0.356
[8]; AA 105 Gln, replicate 2
  Fi CEF 2: -0.028
[8]; AA 105 Gln, replicate 3
  Fi CEF 3: -0.095
[8]; AA 105 Glu, replicate 1
  Fi CEF 1: 0.340
[8]; AA 105 Glu, replicate 2
  Fi CEF 2: -0.099
[8]; AA 105 Gly
  Fi CEF AVG: 0.067
[8]; AA 105 Gly, replicate 1
  Fi CEF 1: 0.338
[8]; AA 105 Gly, replicate 2
  Fi CEF 2: -0.077
[8]; AA 105 Gly, replicate 3
  Fi CEF 3: -0.061
[8]; AA 105 Leu
  Fi CEF AVG: 0.072
[8]; AA 105 Leu, replicate 1
  Fi CEF 1: 0.332
[8]; AA 105 Leu, replicate 2
  Fi CEF 2: 0.047
[8]; AA 105 Lys
  Fi CEF AVG: 0.057
[8]; AA 105 Lys, replicate 3
  Fi CEF 3: 0.102
[8]; AA 105 Phe
  Fi CEF AVG: 0.182
[8]; AA 105 Phe, replicate 2
  Fi CEF 2: 0.022
[8]; AA 105 Phe, replicate 3
  Fi CEF 3: 0.240
[8]; AA 105 Pro
  Fi CEF AVG: 0.130
[8]; AA 105 Pro, replicate 1
  Fi CEF 1: 0.375
[8]; AA 105 Pro, replicate 2
  Fi CEF 2: -0.060
[8]; AA 105 Pro, replicate 3
  Fi CEF 3: 0.074
[8]; AA 105 Ser
  Fi CEF AVG: 0.105
[8]; AA 105 Ser, replicate 3
  Fi CEF 3: 0.208
[8]; AA 105 Trp
  Fi CEF AVG: 0.125
[8]; AA 105 Trp, replicate 1
  Fi CEF 1: 0.969
[8]; AA 105 Tyr, replicate 2
  Fi CEF 2: 0.000
[8]; AA 105 Tyr, replicate 3
  Fi CEF 3: 0.000
[8]; absolute fitness of TEM-1 WT, CEF, replicate 1
  WT abs Fi 1: -0.283
[8]; absolute fitness of TEM-1 WT, CEF, replicate 2
  WT abs Fi 2: 0.276
[8]; absolute fitness of TEM-1 WT, CEF, replicate 3
  WT abs Fi 3: 0.176
[5]; [11]
  MIC: 0.2 µg/mL (≈ 0.361 µM)
[9]
  MIC: 0.1 µg/mL (≈ 0.18 µM)
